Test results from US20170291890A1 (Epizyme, Inc., priority 2014, published 2017).

How the values were obtained:
KDM4C = target: T1, KDM4C (Homo sapiens, UniProt Q9H3R0); experiment: KDM4C Assay (SAMDI mass spectrometry demethylase assay); format: biochemical; settings: N-terminal GST-tagged KDM4C 2-372; class symbols; read-out: 4C IC50
T1 construct: N-terminal GST-tagged KDM4C^2-372 was purchased from BPS Biosciences; GST (N); purchased BPS Biosciences
T1 sequence (Q9H3R0 2-372): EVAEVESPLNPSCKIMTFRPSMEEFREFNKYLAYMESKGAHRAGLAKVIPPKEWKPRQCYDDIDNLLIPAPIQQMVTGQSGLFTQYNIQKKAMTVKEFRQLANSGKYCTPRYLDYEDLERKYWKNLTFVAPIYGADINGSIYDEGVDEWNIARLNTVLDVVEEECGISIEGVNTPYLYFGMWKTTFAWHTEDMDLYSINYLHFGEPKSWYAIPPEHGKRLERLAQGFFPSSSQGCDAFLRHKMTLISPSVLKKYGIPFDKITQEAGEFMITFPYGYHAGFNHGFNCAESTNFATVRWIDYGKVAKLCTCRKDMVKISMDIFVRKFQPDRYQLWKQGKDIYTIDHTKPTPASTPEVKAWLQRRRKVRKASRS
Outline: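 GST-tagged KDM4C 2-372 (5 nM) preincubated 30 min with compound, then H3K9me3 biotinylated peptide (500 nM) and 2-oxoglutarate (15 μM) added in HEPES pH 8.0 with ascorbate, Fe(II), TCEP; 150 min at 25 °C, formic-acid quench. Conversion by SAMDI mass spectrometry from substrate/product peak AUC; IC50 from dose-response.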

KDM4A = target: T2, KDM4A (Homo sapiens, UniProt O75164); experiment: KDM4A Assay (SAMDI mass spectrometry demethylase assay); format: biochemical; settings: N-terminal His-tagged KDM4A 1-350; class symbols; read-out: 4A IC50
T2 construct: N-terminal His-tagged KDM4A^1-350 was purchased from BPS Biosciences; His (N); purchased BPS Biosciences
T2 sequence (O75164 1-350): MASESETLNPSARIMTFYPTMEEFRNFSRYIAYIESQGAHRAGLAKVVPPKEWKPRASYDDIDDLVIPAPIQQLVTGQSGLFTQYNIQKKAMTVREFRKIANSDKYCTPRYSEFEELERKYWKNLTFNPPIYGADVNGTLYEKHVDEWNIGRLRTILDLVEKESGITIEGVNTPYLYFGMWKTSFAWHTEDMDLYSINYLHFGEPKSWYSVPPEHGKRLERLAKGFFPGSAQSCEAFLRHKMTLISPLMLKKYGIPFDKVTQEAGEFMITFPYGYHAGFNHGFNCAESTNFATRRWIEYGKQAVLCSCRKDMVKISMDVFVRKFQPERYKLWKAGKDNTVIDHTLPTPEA
Experimental: N-terminal His-tagged KDM4A^1-350 was purchased from BPS Biosciences. Peptides were synthesized by BioPeptide and all other reagents were purchased from Sigma-Aldrich at the highest level of purity possible. Assays were performed in a 50 μL volume in 384-well V-bottom polypropylene microplates (Greiner) at 25° C. Optimized 1× assay buffer was 50 mM HEPES (pH=8.0), 100 μM sodium ascorbate, 20 mM NaCl, 10 μM ammonium iron sulfate, 1 mM tris(2-carboxyethyl)phosphine (TCEP), 0.002% Tween-20, and 0.005% BSG. For compound screening, 35 μL of KDM4A^1-350 (final concentration, f.c.=5 nM) was added using a Multidrop Combi and preincubated with 1 μL of test compound (f.c.=10 μM) for 30 minutes and subsequently 15 μL of peptide with the following sequence NH2-ARTKQTAR(Kme2)STGGKAPRKQLA(K-Ahx-Biotin)-amide (f.c.=600 nM) and 2-oxoglutarate (f.c.=5 μM) was added by Multidrop Combi to begin the reaction. Reactions proceeded for 120 minutes and were stopped by the addition of 5 μL of formic acid (f.c.=0.5%) using a Multidrop Combi and then analyzed by SAMDI Tech Inc.
SAMDI Tech analyzed all reactions using self-assembled monoloayer desorption/ionization technology as previously described (Gerard-Levin Z A, Scholle M D, Eisenberg A H, et al.: High-throughput screening of small molecule libraries using SAMDI mass spectrometry. ACS Comb Sci 2011; 13:347-350). Briefly, a 2 μL sample of the stopped demethylase reactions were transferred to a SAMDI array coated with 384 biotin-neutravidin spots using a 384-channel pipet station. The SAMDI arrays were incubated for 1 h in a humidified chamber, followed by washing of the surface with deionized ultra-filtered water (DIUF) and drying under nitrogen. A matrix of 30 mg/ml 2′,4′,6′-Trihydroxyacetophenone monohydrate (THAP) in acetone was applied using a TPP Mosquito 1.2 μL tip by dispensing 50 nL on each of the 384 spots on the array. SAMDI-MS was run using acquisition method ReflectorPositiveUTX. The % conversion of substrate to product was calculated using the AUC of the substrate and product peptide peaks.
An IC50 value was determined by contacting various concentrations of a test compound with one of the KDM4A, KDM4C or KDMSC enzyme constructs and plotting a dose-response curve which associates the amount of inhibition of the enzyme relative to the concentration of the test compound. From the curve, the IC50 value (which represents the concentration of the test compound necessary to inhibit maximal enzymatic activity by 50%) was determined. Additionally, the slope of the linear range of the plotted curve, which indicates the speed with which the curve rises between the minimum and maximum, was calculated.

| Compound | IC50 (KDM4C) | IC50 (KDM4A) |
| --- | --- | --- |
| CN(C)CCCn1ncc(-c2ccccc2)c1Nc1cnccc1C(=O)O [Compound 52, 3-((1-(3-(dimethylamino)propyl)-4-phenyl-1H-pyrazol-5-yl)amino) isonicotinic acid] | 10000 to 100000 nM | 1000 to 10000 nM |
| NCCn1nc(-c2ccccc2)cc1Nc1cnccc1C(=O)O [Compound 26] | 1000 to 10000 nM | 1000 to 10000 nM |
| Cn1nc(-c2ccccc2)cc1Nc1cnccc1C(=O)O [Compound 6] | 1000 to 10000 nM | 100 to 1000 nM |
| Cc1nn(C2CCN(C(=O)c3ccccc3)CC2)cc1Nc1cnccc1C(=O)O [Compound 97, 3-(1-(1-benzoylpiperidin-4-yl)-3-methyl-1H-pyrazol-4-ylamino) isonicotinic acid] | 1000 to 10000 nM | 1000 to 10000 nM |
| Cc1nn(C2CCNCC2)cc1Nc1cnccc1C(=O)O [Compound 69, 3-((3-methyl-1-(piperidin-4-yl)-1H-pyrazol-4-yl)amino) isonicotinic acid] | 1000 to 10000 nM | 100 to 1000 nM |
| Cc1cc(Nc2cnccc2C(=O)O)n(C2CCOCC2)n1 [Compound 78, 3-((3-methyl-1-(tetrahydro-2H-pyran-4-yl)-1H-pyrazol-5-yl)amino) isonicotinic acid] | 100 to 1000 nM | 100 to 1000 nM |
| Cc1c(Nc2cnccc2C(=O)O)cnn1C1CCCN(C)CC1 (stereo not shown) [Compound 112, 3-((5-methyl-1-(1-methylazepan-4-yl)-1H-pyrazol-4-yl)amino)isonicotinic acid] | 100 to 1000 nM | 100 to 1000 nM |
| COC(=O)c1ccncc1Nc1cnn(C2CCN(C(C)C)CC2)c1C [Compound 103, methyl 3-((1-(1-isopropylpiperidin-4-yl)-5-methyl-1H-pyrazol-4-yl)amino)isonicotinate] | 10000 to 100000 nM | 10000 to 100000 nM |
| Cn1nc(-c2cccc(Cl)c2)cc1Nc1cnccc1C(=O)O [Compound 25, 3-((3-(3-chlorophenyl)-1-methyl-1H-pyrazol-5-yl)amino) isonicotinic acid] | 1000 to 10000 nM | 100 to 1000 nM |
| Cc1nn(-c2ccccc2)c(C)c1Nc1cnccc1C(=O)O [Compound 77, 3-((3,5-dimethyl-1-phenyl-1H-pyrazol-4-yl)amino)isonicotinic acid] | 100 to 1000 nM | 1 to 100 nM |
| Cc1nn(C2CCCN(C)CC2)cc1Nc1cnccc1C(=O)O (stereo not shown) [Compound 111, 3-(3-methyl-1-(1-methylazepan-4-yl)-1H-pyrazol-4-ylamino) isonicotinic acid] | 100 to 1000 nM | 100 to 1000 nM |
| Cn1cc(-c2ccccc2F)c(Nc2cnccc2C(=O)O)n1 [Compound 11, 3-((4-(2-Fluorophenyl)-1-methyl-1H-pyrazol-3-yl)amino) isonicotinic acid] | 100 to 1000 nM | 100 to 1000 nM |
| Cc1nn(-c2ccc(O)cc2)c(C)c1Nc1cnccc1C(=O)O [Compound 76, 3-((1-(4-hydroxyphenyl)-3,5-dimethyl-1H-pyrazol-4-yl)amino)isonicotinic acid] | 1000 to 10000 nM | 100 to 1000 nM |
| O=C(O)c1ccncc1Nc1nn(CCN2CCC(F)(F)CC2)cc1-c1ccc(F)cc1 [Compound 45, 3-((1-(2-(4,4-difluoropiperidin-1-yl)ethyl)-4-(4-fluorophenyl)-1H-pyrazol-3-yl)amino)isonicotinic acid] | 100 to 1000 nM | 100 to 1000 nM |
| Cn1cc(-c2cccc(F)c2)c(Nc2cnccc2C(=O)O)n1 [Compound 9, 3-((4-(3-Fluorophenyl)-1-methyl-1H-pyrazol-3-yl)amino) isonicotinic acid] | 100 to 1000 nM | 100 to 1000 nM |
| COCCn1nc(-c2ccccc2)cc1Nc1cnccc1C(=O)O [Compound 27, 3-((1-(2-Methoxyethyl)-3-phenyl-1H-pyrazol-5-yl)amino) isonicotinic acid] | 100 to 1000 nM | 100 to 1000 nM |
| N[C@H]1CC[C@@H](n2nc(-c3ccccc3)cc2Nc2cnccc2C(=O)O)CC1 [Compound 37, 3-((1-((cis)-4-aminocyclohexyl)-3-phenyl-1H-pyrazol-5-yl)amino)isonicotinic acid] | 100 to 1000 nM | 100 to 1000 nM |

Further lines, results first:

| IC50 (KDM4C) | IC50 (KDM4A) | Compound |
| --- | --- | --- |
| 100 to 1000 nM | 100 to 1000 nM | Cc1cn(-c2ccccc2)c(Nc2cnccc2C(=O)O)n1 [Compound 2] |
| 1 to 100 nM | 1 to 100 nM | Cc1c(Nc2cnccc2C(=O)O)cnn1[C@H]1CC[C@@H](N)CC1 [Compound 79, 3-((1-((cis)-4-aminocyclohexyl)-5-methyl-1H-pyrazol-4-yl)amino)isonicotinic acid] |
| 100 to 1000 nM | 1 to 100 nM | Cc1c(Nc2cnccc2C(=O)O)nn(CCN2CCC(F)(F)CC2)c1-c1ccccc1 [Compound 67, 3-((1-(2-(4,4-difluoropiperidin-1-yl)ethyl)-4-methyl-5-phenyl-1H-pyrazol-3-yl)amino)isonicotinic acid] |
| 100 to 1000 nM | 100 to 1000 nM | Cn1cc(-c2ccc(F)cc2)c(Nc2cnccc2C(=O)O)n1 [Compound 7, 3-((4-(4-Fluorophenyl)-1-methyl-1H-pyrazol-3-yl)amino) isonicotinic acid] |
| 100 to 1000 nM | 1000 to 10000 nM | O=C(O)c1ccncc1Nc1cc(-c2ccccc2)nn1[C@H]1CC[C@H](O)CC1 [Compound 39, 3-((1-((trans)-4-hydroxycyclohexyl)-3-phenyl-1H-pyrazol-5-yl)amino)isonicotinic acid] |
| 100 to 1000 nM | 1 to 100 nM | Cc1nn(-c2ccccc2)cc1Nc1cnccc1C(=O)O [Compound 19, 3-((3-Methyl-1-phenyl-1H-pyrazol-4-yl)amino)isonicotinic acid] |
| 100 to 1000 nM | 100 to 1000 nM | Cc1cc(Nc2cnccc2C(=O)O)nn1-c1ccccc1 [Compound 60, 3-((5-methyl-1-phenyl-1H-pyrazol-3-yl)amino)isonicotinic acid] |
| 100 to 1000 nM | 100 to 1000 nM | O=C(O)c1ccncc1Nc1nn(CCC(F)(F)F)cc1-c1ccncc1 [Compound 74, 3-((4-(pyridin-4-yl)-1-(3,3,3-trifluoropropyl)-1H-pyrazol-3-yl)amino)isonicotinic acid] |
| 100 to 1000 nM | 1 to 100 nM | Cc1c(Nc2cnccc2C(=O)O)cnn1C1CCN(C2CCC2)CC1 [Compound 96] |
| 1 to 100 nM | 1 to 100 nM | Cc1cn(-c2ccccc2)nc1Nc1cnccc1C(=O)O [Compound 62, 3-((4-methyl-1-phenyl-1H-pyrazol-3-yl)amino) isonicotinic acid] |
| 1 to 100 nM | 1 to 100 nM | Cc1c(Nc2cnccc2C(=O)O)cnn1-c1ccccc1 [Compound 20, 3-((5-methyl-1-phenyl-1H-pyrazol-4-yl)amino)isonicotinic acid] |
| 1 to 100 nM | 1 to 100 nM | CNC(=O)c1ccc(-n2ncc(Nc3cnccc3C(=O)O)c2C)cc1 [Compound 58, 3-((5-methyl-1-(4-(methylcarbamoyl)phenyl)-1H-pyrazol-4-yl)amino) isonicotinic acid] |
